Reference: PubChem BioAssay AID1361 (SRMLSC, 2008)
Calls of active or inactive are those of the source. How the calls were made is not given here.

Test: blockers of mitochondrial fusion, WT vs mutant – cell-based, chemical genetic, wild-type and mutant, confirmation (AID 1361)
Conditions: Cell-based mitochondrial fusion phenotype, imaging
[1] = mutant cells, measured here: mutant cell line IC50

| SMILES | IC50 (WT cells) | IC50 [1] |
| --- | --- | --- |
| CCOC(=O)C1=NN(c2ccccc2)C2(S1)SC(C(C)=O)=C(C)N2c1ccccc1 (configuration not stated) | 7.84 µM | > 25 µM |
| CCOC(=O)c1c(C)[nH]c(C)c1C(=O)COC(=O)c1cc2ccccc2cc1O | 17.2 µM | > 25 µM |
| CCn1cc(C(=O)OCC(=O)c2cc(C)n(-c3cccc(C(F)(F)F)c3)c2C)c(=O)c2ccc(C)nc21 | 11.1 µM | > 25 µM |
| CC(Oc1ccc2oc3ccccc3c2c1)C(=O)NC12CC3CC(CC(C3)C1)C2 (configuration not stated) | 9.61 µM | 15.7 µM |
| CN1CC(c2ccccc2)C2(SC(=S)N(Cc3ccco3)C2=O)C12C(=O)Nc1ccccc12 (configuration not stated) | 6.9 µM | 12 µM |
| CCOC(=O)Cn1c(=NC(=O)c2ccc([N+](=O)[O-])s2)sc2ccccc21 | 4.55 µM | > 25 µM |
| C1CCN=C(Nc2nc3c(s2)CCCC3)CC1 | > 25 µM (inactive) | > 25 µM |
| CCCCc1nc(NCCN)c(C#N)c2c1CSC(C)(C)C2 | 21.7 µM | > 25 µM |
| CCN(CC)P(=O)(Nc1ccc(C)cc1Br)c1ccc(N(C)C)cc1NC(=O)c1ccco1 (configuration not stated) | 12.8 µM | > 25 µM |
| CCCCCC[n+]1c(-c2ccccc2)csc1Nc1ccccc1 | 4.95 µM | 14.8 µM |
| O=C(NCc1nnc(SCc2ccc(C(F)(F)F)cc2)n1-c1ccccc1)C12CC3CC(CC(C3)C1)C2 | 18 µM | > 25 µM |
| CCOc1ccc(NCc2nnc(SCc3ccc(Cl)cc3)n2-c2ccccc2)cc1 | > 25 µM (inactive) | > 25 µM |
| Cc1ccc(C(=O)NCc2ccc(N3CCN(C(=O)OC(C)(C)C)CC3)cc2)cc1 | > 25 µM (inactive) | > 25 µM |
| CCOc1ccccc1NC(=O)C(OC(=O)c1ccc(O)cc1)c1ccccc1 (configuration not stated) | 9.83 µM | > 25 µM |
| CCOC(=O)C1=C(C)NC(SC(C)=O)=NC1c1ccc(OC(C)=O)c(OC)c1 (configuration not stated) | > 25 µM (inactive) | > 25 µM |
| O=C(NCC1(c2ccccc2)CCCC1)C1(c2ccccc2)CCCC1 | 16.8 µM | > 25 µM |
| Cc1cnc(C(=O)OCC(=O)Nc2ccc(Cl)cc2)cn1 | > 25 µM (inactive) | > 12.5 µM |
| OC(CNCc1ccc(Cl)cc1)(c1ccccc1)c1ccc(F)cc1 (configuration not stated) | > 25 µM (inactive) | > 25 µM |
| CCOC(=O)c1sc(NC(=O)Nc2cccc(Cl)c2)cc1C | 11.8 µM | > 25 µM |
| CCC(C)c1ccccc1NC(=O)COC(=O)c1ccc2[nH]c3c(c2c1)CCCC3 (configuration not stated) | 9.98 µM | > 25 µM |
| Cc1c(C)c2ccc(OC3CCCCC3=O)cc2oc1=O (configuration not stated) | > 25 µM (inactive) | > 25 µM |

| SMILES | IC50 (WT cells) | IC50 [1] |
| --- | --- | --- |
| O=c1cc(N2CCCCC2)c(-c2ccccc2)nn1Cc1ccc(F)cc1 | 17.4 µM | > 25 µM |
| Cc1ccc(CNCC(O)(c2ccccc2)c2ccc(F)cc2)cc1 (configuration not stated) | > 25 µM (inactive) | > 25 µM |
| CCOc1cc(C(=O)N(C)Cc2cc3ccccc3[nH]c2=O)cc(OCC)c1OCC | > 25 µM (inactive) | > 25 µM |
| COC(=O)CP(=O)(c1ccccc1)c1ccccc1 | > 25 µM (inactive) | > 25 µM |
| CC12CCC(c3c(C(=O)O)nn(-c4ccc(F)cc4)c31)C2(C)C (configuration not stated) | > 25 µM (inactive) | > 25 µM |
| CCCCCCn1c(N)c(C(=O)NCCN2CCOCC2)c2nc3ccccc3nc21 | > 25 µM (inactive) | > 25 µM |
| COCCCNC(=O)c1cccc(C(=O)NCCCOC)c1 | > 25 µM (inactive) | > 25 µM |
| CCOC(=O)C1=C(C)Nc2sc(C(=O)c3ccc(F)cc3)c(N)c2C1c1ccc(C(=O)OC)cc1 (configuration not stated) | 2.57 µM | > 25 µM |
| CCc1nnc(NC(=O)Nc2ccccc2OC)s1 | > 25 µM (inactive) | > 25 µM |
| N#CC(c1ccc(Cl)cc1)(c1ncc(C(F)(F)F)cc1Cl)N1CCOCC1 (configuration not stated) | > 25 µM (inactive) | > 25 µM |
| O=C(CCCCCN1C(=O)c2ccccc2C1=O)Nc1ccc(S(=O)(=O)N2CCCCC2)cc1 | > 25 µM (inactive) | > 12.5 µM |
| COCCN(C(=S)Nc1c(C)cc(C)cc1C)C(C)c1cccs1 (configuration not stated) | 23.3 µM | > 25 µM |
| COCCNC(=O)c1cccc(Nc2nc(-c3ccccc3)c3cc(Cl)ccc3n2)c1 | 19.4 µM | > 25 µM |
| O=C(COc1ccccc1[N+](=O)[O-])N/N=C/C=C/c1ccco1 | > 25 µM (inactive) | > 25 µM |
| CCn1c2ccccc2c2cc(/C=N/NC(=O)c3cccc(C)c3)ccc21 | > 25 µM (inactive) | > 25 µM |
| Cc1ccc(-c2nc(N)sc2-c2ccc(C)cc2)cc1 | 9.96 µM (inactive) | 9.46 µM |
| CSc1ccc(Cl)c(C(=O)NCCOc2cc(C)ccc2C(C)C)c1 | 12.9 µM | > 25 µM |
| CC1(C)CC(=O)C(C=Nc2ccc3[nH]ncc3c2)=C(O)C1 | > 25 µM (inactive) | > 25 µM |
| CC/C(=C(/CC)c1ccc(O)cc1)c1ccc(O)cc1 | 23.8 µM | > 25 µM |
| Cc1ccc(NC(=O)c2cc(-c3ccccc3)nn2-c2ccccc2)c(Br)c1 | 4.51 µM | > 25 µM |
| Clc1ccc(C2=Nn3c(nnc3-c3cc(-c4ccccc4)n[nH]3)SC2)cc1 | > 25 µM (inactive) | > 25 µM |

| SMILES | IC50 (WT cells) | IC50 [1] |
| --- | --- | --- |
| Cc1nc(=O)c(-c2ccccc2)c(C)n1CCCCCC(=O)O | > 25 µM (inactive) | > 25 µM |
| CCN(CC)S(=O)(=O)c1cccc(C(=O)Nc2sc3c(c2C(N)=O)CCCC3)c1 | > 25 µM (inactive) | > 25 µM |
| CC(C)COC(=O)c1cccc2c1-c1ccccc1/C2=N\O | > 25 µM (inactive) | > 25 µM |
| COC(=O)c1c(N)n(Cc2ccc(OC)cc2)c2nc3ccccc3nc12 | > 25 µM (inactive) | > 25 µM |
| CC(C)(C)c1ccc(S(=O)(=O)Nc2ccc(Cc3ccncc3)cc2)cc1 | 23.3 µM | > 25 µM |
| CCC1Oc2ccc(C)cc2N(CC(=O)NCCCN2CCCCC2CC)C1=O (configuration not stated) | > 25 µM (inactive) | > 25 µM |
| N#CC(C#N)=C1C=CC=CN1/C(=C\c1ccccc1Cl)C(=O)c1ccccc1 | 18.6 µM | > 25 µM |
| O=C(c1ccc2c(c1)OCO2)N(Cc1ccco1)C1(C(=O)NC2CCCCC2)CCCCC1 | > 25 µM (inactive) | > 25 µM |
| CCCn1c(CN(Cc2ccccc2)Cc2ccccc2)nc2c1c(=O)n(C)c(=O)n2C | 20.6 µM | > 25 µM |
| O=C(Nc1ccc2c(c1)nc1n2CCN(Cc2ccccc2)C1)c1cccs1 | > 25 µM (inactive) | > 25 µM |
| Cc1ccc(S(=O)(=O)Nc2ccc(C(OC(=O)c3ccccc3[N+](=O)[O-])(C(F)(F)F)C(F)(F)F)cc2)cc1 | 11 µM | > 25 µM |
| CC1CCC(C(C)C)C(OC(=O)COC(=O)c2ccccc2N)C1 (configuration not stated) | 17.9 µM | > 25 µM |
| CCOc1cccc(Oc2ncccc2C(=O)/C(C#N)=C/N(C)C)c1 | > 25 µM (inactive) | > 25 µM |
| CC(C)(C)[C@H]1C=C(C(=O)N2CCN(Cc3ccccc3)CC2)O[C@@H](OCc2ccc(CO)cc2)C1 | 21.7 µM | > 25 µM |
| COc1ccccc1NC(=O)c1cccc(NC(=O)c2ccco2)c1 | > 25 µM (inactive) | > 25 µM |
| CCOc1ccc(-n2c(SCC(=O)Nc3cc(C)on3)nnc2-c2c[nH]c3ccccc23)cc1 | > 25 µM (inactive) | > 25 µM |
| COc1ccc(C2C(C#N)=C(SC)NC3=C2C(=O)CC(C)(C)C3)cc1 (configuration not stated) | > 25 µM (inactive) | > 25 µM |
| CC(C)/C(=N/Nc1ccccc1[N+](=O)[O-])c1ccccc1 | > 25 µM (inactive) | > 25 µM |
| CCC(C)(C)NC(=O)CN(C(=O)c1snc(C(N)=O)c1N)c1ccc2c(c1)OCCO2 | > 25 µM (inactive) | > 25 µM |
| CCC[C@@H]1C[C@@]1(CCC)[C@@H](NP(=O)(c1ccccc1)c1ccccc1)c1ccc(C(=O)OC)cc1 | 12.6 µM | > 25 µM |
| Cc1oc(-c2ccccc2Cl)nc1CN1C(=O)CN=C(c2ccccc2)c2ccccc21 | 20.5 µM | > 25 µM |

| SMILES | IC50 (WT cells) | IC50 [1] |
| --- | --- | --- |
| Cc1nn(C(C)C(=O)NCC2CCCO2)c(=O)c2cc3occc3n12 (configuration not stated) | > 25 µM (inactive) | > 25 µM |
| CC(=O)Nc1ccc(S(=O)(=O)N2CCN(C)CC2)cc1 | > 25 µM (inactive) | > 25 µM |
| CC(C)Cn1c(CN(Cc2ccccc2)Cc2ccccc2)nc2c1c(=O)n(C)c(=O)n2C | 11.5 µM | > 25 µM |
| O=C(COC(=O)c1ccc([N+](=O)[O-])s1)Nc1ccccc1 | 17.7 µM | > 25 µM |
| O=C(CSc1ccccc1)NCc1cccnc1 | > 25 µM (inactive) | > 25 µM |
| Cc1ccc(S(=O)(=O)Nc2ccc(N=Nc3ccc(O)cc3)cc2)cc1 | 17 µM | > 25 µM |
| COc1cc2[nH]c(=O)n(CCC(=O)N3CCN(c4cccc(C)c4C)CC3)c(=O)c2cc1OC | > 25 µM (inactive) | > 25 µM |
| CC(=O)N1CCC(O)(c2cccc(C(F)(F)F)c2)CC1 | > 25 µM (inactive) | > 25 µM |
| C(=N\Nc1nc(N2CCCCCC2)nc(N2CCCCCC2)n1)/c1ccccc1 | 9.35 µM | > 25 µM |
| O=C(NC(=S)Nc1ccccc1N1CCCCC1)c1ccccc1 | 24.9 µM (inactive) | > 25 µM |
| Cc1cc(Oc2ccc(C(C)(C)C)cc2)nc(N2CCOCC2)n1 | 19.9 µM | > 25 µM |
| CCc1nnc(NC(=O)C2Cc3ccccc3CN2S(=O)(=O)c2ccc(C)cc2)s1 (configuration not stated) | > 25 µM (inactive) | > 25 µM |
| Cc1ccc(S(=O)(=O)NCc2ccco2)c(C)c1C | > 25 µM (inactive) | > 25 µM |
| O=C(c1ccco1)N1CCN(C(=O)C2c3ccccc3Oc3ccccc32)CC1 | > 25 µM (inactive) | > 25 µM |
| NS(=O)(=O)c1ccc(N2N=C(c3ccccc3)CC2c2ccc(F)cc2)cc1 (configuration not stated) | 12 µM | > 25 µM |
| Cc1onc(-c2ccccc2Cl)c1C(=O)Nc1nnc(-c2ccc(Br)cc2)s1 | 8.39 µM | > 25 µM |
| Cc1cccc(N2CCN(C(=O)COc3ccc4c(c3)CCC4)CC2)c1C | 14.8 µM | > 25 µM |
| Cc1oc(-c2ccccc2F)nc1CN1CCC(C(=O)NCCC2=CCCCC2)CC1 | > 25 µM (inactive) | > 25 µM |
